Test results: US9018214B2, “Bicyclic heterocycle compounds and their uses in therapy” (Astex Therapeutics Limited, priority 2011, dated 2015)
Structures can show the parent of a compound that is named as a salt. Where two headings read alike, the source gives them in different places.

Columns and labels:
[1] = test system: EVSA-T (human breast carcinoma); test: Anti-proliferative activity, Alamar Blue assay, EVSA-T; assay type: cell-based; settings: Homo sapiens
[2] = biological target: BIR3 domain of human cIAP-1 (residues 267-363) (Homo sapiens (Human), UniProt Q13490); test: cIAP-1 in vitro competitive displacement binding assay (fluorescence polarization; Probe A AVPIK(5&6FAM)-amide or Probe B AbuRPFK(5&6FAM)-amide)
[3] = test system: MDA-MB-231 (human breast carcinoma); test: Anti-proliferative activity, Alamar Blue assay, MDA-MB-231; assay type: cell-based; settings: read-out: EC50, inhibition of cell growth
[4] = biological target: BIR3 domain of human XIAP (residues 252-350) (Homo sapiens (Human), UniProt P98170); test: XIAP in vitro competitive displacement binding assay (fluorescence polarization); settings: for IC50: read-out: IC50 or PI Xiap: IC50; for inhibition at 0.04 µM: 1 h, read-out: IC50 or PI Xiap: PI
[5] = EVSA-T, 72 h, read-out: EVSA-T prolif (EC50)
[6] = Probe B AbuRPFK(5&6FAM)-amide, read-out: IC50 or PI cIAP1: IC50
[7] = EVSA-T, 72 h, read-out: EC50, inhibition of cell growth
[8] = read-out: IC50 or PI cIAP1: IC50
[9] = EVSA-T, 72 hours, Alamar Blue, read-out: EVSA-T prolif (EC50)
[10] = MDA-MB-231 cell line, 72 hours, Alamar Blue
[11] = EVSA-T cell line, 72 hours, Alamar Blue, read-out: EC50, inhibition of cell growth

SMILES	IC50 [2, 6] [nM]	IC50 [4] [nM]	EC50 [1, 9] [nM]	EC50 [3, 10] [nM]	EC50 [1, 11] [nM]	EC50 [1, 5] [nM]	EC50 ([3]; MDA-MB-231, 72 h) [nM]	IC50 [2, 8] [nM]	also measured
COC[C@H]1CN[C@H](C)CN1CC(=O)N1CC(C)(C)c2cc(F)c(S(=O)(=O)c3ccccc3)cc21 [Example 58, 1-(6-Benzene-sulfonyl-5-fluoro-3,3-dimethyl-2,3-dihydro-indol-1-yl)-2-((2R,5R)-2-methoxymethyl-5-methyl-piperazin-1-yl)-ethanone hydrochloride salt]	45	–	–	–	–	170	< 10000	–	–
CC[C@H]1CN[C@H](C)CN1CC(=O)N1CC(C)(C)c2cc(F)c(S(=O)(=O)c3ccccc3)cc21 [Example 48, 1-(6-Benzenesulfonyl-5-fluoro-3,3-dimethyl-2,3-dihydro-indol-1-yl)-2-((2S,5R)-2-ethyl-5-methyl-piperazin-1-yl)-ethanone dihydrochloride salt]	–	97	–	–	–	250	< 10000	64	EC50 [1, 7]: < 10000 nM; IC50 [2]: < 1000 nM
COC[C@H]1CN[C@H](C)CN1CC(=O)N1CC(C)(C)c2cnc(-c3cc4ccccc4o3)cc21 [Example 150, 1-[6-(1-Benzofuran-2-yl)-3,3-dimethyl-1H,2H,3H-pyrrolo[3,2-c]pyridin-1-yl]-2-[(2R,5R)-2-(methoxymethyl)-5-methylpiperazin-1-yl]ethan-1-one dihydrochloride]	–	270	–	–	–	730	< 10000	14	–
COC[C@H]1CN[C@H](C)CN1CC(=O)N1CC(C)(C)c2cnc(Oc3c(C)cccc3C)cc21 [Example 119, 1-[6-(2,6-Dimethylphenoxy)-3,3-dimethyl-1H,2H,3H-pyrrolo[3,2-c]pyridin-1-yl]-2-[(2R,5R)-2-(methoxymethyl)-5-methylpiperazin-1-yl]ethan-1-one hydrochloride]	96	–	–	–	–	870	< 10000	–	–
COC[C@H]1CN[C@H](C)CN1CC(=O)N1CC(C)(C)c2ccc(S(=O)(=O)CC(C)C)cc21 [Example 64, 1-[3,3-Dimethyl-6-(2-methyl-propane-1-sulfonyl)-2,3-dihydro-indol-1-yl]-2-((2R,5R)-2-methoxymethyl-5-methyl-piperazin-1-yl)-ethanone dihydrochloride salt]	–	270	–	–	–	1000	< 10000	140	–
C[C@@H]1CN(CC(=O)N2CC(C)(C)c3cnc(Oc4ccccc4Cl)cc32)[C@@H](CN2CCCC2=O)CN1 [Example 182, 1-{[(2R,5R)-1-{2-[6-(2-Chlorophenoxy)-3,3-dimethyl-1H,2H,3H-pyrrolo[3,2-c]pyridin-1-yl]-2-oxoethyl}-5-methylpiperazin-2-yl]methyl}pyrrolidin-2-one hydrochloride]	–	–	67	< 10000	< 10000	–	–	–	inhibition at […] ([2]; 3 h, Probe B, @ 0.012 μM, read-out: IC50 or PI cIAP1: PI): 62%; inhibition at 0.04 µM ([4]; @ 0.04 μM): 73%
COC[C@H]1CN[C@H](C)CN1CC(=O)N1CC(C)(C)c2cnc(Oc3c(C)cccc3Cl)cc21 [Example 130, 1-[6-(2-Chloro-6-methylphenoxy)-3,3-dimethyl-1H,2H,3H-pyrrolo[3,2-c]pyridin-1-yl]-2-[(2R,5R)-2-(methoxymethyl)-5-methylpiperazin-1-yl]ethan-1-one hydrochloride]	44	200	230	< 10000	< 10000	–	–	–	–
C[C@@H]1CN(CC(=O)N2CC(C)(C)c3cnc(Oc4ccccc4Cl)cc32)[C@@H](C(=O)N(C)C)CN1 [Example 151, (2R,5R)-1-{2-[6-(2-Chlorophenoxy)-3,3-dimethyl-1H,2H,3H-pyrrolo[3,2-c]pyridin-1-yl]-2-oxoethyl}-N,N,5-trimethylpiperazine-2-carboxamide dihydrochloride]	–	–	–	–	–	590	< 10000	19	inhibition at 0.04 µM [4]: 48%
COC[C@H]1CN[C@H](C)CN1CC(=O)N1CC(C)(C)c2cnc(C(=O)c3ccccc3)cc21 [Example 96, 1-{6-Benzoyl-3,3-dimethyl-1H,2H,3H-pyrrolo[3,2-c]pyridin-1-yl}-2-[(2R,5R)-2-(methoxymethyl)-5-methylpiperazin-1-yl]ethan-1-one, dihydrochloride salt]	–	340	–	–	–	3000	< 10000	77	EC50 [1, 7]: < 10000 nM
COC[C@H]1CN[C@H](C)CN1CC(=O)N1CC(C)(C)c2ccc(Cc3ccccc3)cc21 [Example 94, 1-(6-Benzyl-3,3-dimethyl-2,3-dihydro-1H-indol-1-yl)-2-[(2R,5R)-2-(methoxy-methyl)-5-methyl-piperazin-1-yl]ethan-1-one, hydrochloride salt]	14	–	–	–	–	330	< 10000	–	–
COC[C@H]1CN[C@H](C)CN1CC(=O)N1CC(C)(C)c2cnc(Oc3c(F)cccc3F)cc21 [Example 128, 1-[6-(2,6-Difluorophenoxy)-3,3-dimethyl-1H,2H,3H-pyrrolo[3,2-c]pyridin-1-yl]-2-[(2R,5R)-2-(methoxymethyl)-5-methylpiperazin-1-yl]ethan-1-one hydrochloride]	120	380	1100	< 10000	< 10000	–	–	–	–
C[C@@H]1CN(CC(=O)N2CC(C)(C)c3cc(F)c(S(=O)(=O)c4ccccc4)cc32)CCN1 [Example 47, 1-(6-Benzenesulfonyl-5-fluoro-3,3-dimethyl-2,3-dihydro-indol-1-yl)-2-((R)-3-methyl-piperazin-1-yl)-ethanone dihydrochloride salt]	–	270	–	–	–	1800	< 10000	390	EC50 [1, 7]: < 10000 nM; IC50 [2]: < 1000 nM

Second part, led by results:

IC50 [2, 6] [nM]	IC50 [4] [nM]	EC50 [1, 9] [nM]	EC50 [3, 10] [nM]	EC50 [1, 11] [nM]	SMILES	EC50 [1, 5] [nM]	EC50 ([3]; MDA-MB-231, 72 h) [nM]	IC50 [2, 8] [nM]	also measured
29	220	290	< 10000	–	C[C@@H]1CN(CC(=O)N2CC(C)(C)c3cnc(Cc4ccccc4)cc32)[C@@H](C(F)F)CN1 [Example 122, 1-{6-Benzyl-3,3-dimethyl-1H,2H,3H-pyrrolo[3,2-c]pyridin-1-yl}-2-[(2R,5R)-2-(difluoromethyl)-5-methylpiperazin-1-yl]ethan-1-one hydrochloride]	–	–	–	–
17	340	320	< 10000	< 10000	COC[C@H]1CN[C@H](C)CN1CC(=O)N1CC(C)(C)c2cnc(Cc3cccc(F)c3)cc21 [Example 97, 1-{6-[(3-Fluorophenyl)methyl]-3,3-dimethyl-1H,2H,3H-pyrrolo[3,2-c]pyridin-1-yl}-2-[(2R,5R)-2-(methoxy-methyl)-5-methyl-piperazin-1-yl]ethan-1-one, hydrochloride salt]	–	–	–	–
110	350	2000	< 10000	< 10000	COC[C@H]1CN[C@H](C)CN1CC(=O)N1CC(C)(C)c2cnc(Oc3ccccc3C)cc21 [Example 83, 1-(3,3-Dimethyl-6-o-tolyloxy-2,3-dihydro-pyrrolo[3,2-c]pyridin-1-yl)-2-((2R,5R)-2-methoxymethyl-5-methyl-piperazin-1-yl)-ethanone hydrochloride salt]	–	–	–	IC50 [2]: < 1000 nM
–	220	34	< 10000	< 10000	COC[C@H]1CN[C@H](C)CN1CC(=O)N1CC(C)(C)c2cnc(Cc3ccc(Cl)cc3)cc21 [Example 82, 1-[6-(4-Chloro-benzyl)-3,3-dimethyl-2,3-dihydro-pyrrolo[3,2-c]pyridin-1-yl]-2-((2R,5R)-2-methoxymethyl-5-methyl-piperazin-1-yl)-ethanone]	–	–	–	inhibition at 0.01 µM ([2]; 3 h, Probe B, @ 0.01 μM, read-out: IC50 or PI cIAP1: PI): 86%
12	240	730	< 10000	–	COC[C@H]1CN[C@H](C)CN1CC(=O)N1CC(C)(c2ccccn2)c2ccc(Cc3ccccc3)cc21 (stereo partly drawn) [Example 144, 1-[6-Benzyl-3-methyl-3-(pyridin-2-yl)-2,3-dihydro-1H-indol-1-yl]-2-[(2R,5R)-2-(methoxymethyl)-5-methylpiperazin-1-yl]ethan-1-one hydrochloride]	–	–	–	–
17	310	350	< 10000	< 10000	COC[C@H]1CN[C@H](C)CN1CC(=O)N1CC(C)(C)c2cc(=O)n(Cc3ccccc3)cc21 [Example 67, 6-Benzyl-1-[2-((2R,5R)-2-methoxymethyl-5-methyl-piperazin-1-yl)-acetyl]-3,3-dimethyl-1,2,3,6-tetrahydro-pyrrolo[2,3-c]pyridin-5-one hydrochloride salt]	–	–	–	IC50 [2]: < 1000 nM
21	190	380	< 10000	–	C[C@@H]1CN(CC(=O)N2CC(C)(C)c3cnc(Cc4ccccc4)cc32)[C@@H](CF)CN1 [Example 121, 1-{6-Benzyl-3,3-dimethyl-1H,2H,3H-pyrrolo[3,2-c]pyridin-1-yl}-2-[(2R,5R)-2-(fluoromethyl)-5-methylpiperazin-1-yl]ethan-1-one hydrochloride]	–	–	–	–
59	490	1000	< 10000	–	C=C(c1ccccc1)c1cc2c(cn1)C(C)(C)CN2C(=O)CN1C[C@@H](C)NC[C@@H]1COC [Example 93, 1-[3,3-Dimethyl-6-(1-phenylethenyl)-1H,2H,3H-pyrrolo[3,2-c]pyridin-1-yl]-2-[(2R,5R)-2-(methoxymethyl)-5-methylpiperazin-1-yl]ethan-1-one, hydrochloride salt]	–	–	–	–
